Test systems include OVCAR-3 ovarian; UACC-62 melanoma; HCT-116 colon; HL-60(TB) leukemia; UO-31 renal; MCF7 breast; SN12C renal; COLO 205 colon; OVCAR-5 ovarian; SK-MEL-5 melanoma.
What all share (experiment): NCI tumour cell line growth inhibition, 48 h

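Growth conditions: 96-well plates. Treatment: test compound, 48 hours, 5 concentrations. Analysis: linear interpolation between bracketing concentrations; unreached endpoints set to highest concentration. Here, GI50 denotes the concentration required for 50% inhibition of growth. TGI: total growth inhibition.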 Some results are limits rather than exact numbers.

Consider `Oc1c(CN2CCOCC2)cc(COCc2ccccc2)c2cccnc12`, for which the GI50 is 2.49 µM with OVCAR-3 ovarian; 2.24 µM in the assay with UACC-62 melanoma; 2820 nM in the assay with HCT-116 colon; 2.38 µM in the assay with HL-60(TB) leukemia; 351 nM with UO-31 renal; 2.07 µM in the assay on MCF7 breast. In addition, the GI50 is 5.29 µM in the assay on SN12C renal, 16 µM with COLO 205 colon, 5.08 µM with OVCAR-5 ovarian and 2030 nM in the assay on SK-MEL-5 melanoma. For the same compound, the TGI was above 100 µM in the assay with OVCAR-3 ovarian; 8.91 µM in the assay on UACC-62 melanoma; above 100 µM in the assay with HCT-116 colon; 7.32 µM in the assay with HL-60(TB) leukemia; 9.36 µM with UO-31 renal; above 100 µM with MCF7 breast. Further, the TGI with SN12C renal is above 100 µM; with COLO 205 colon, 67.2 µM; in the assay on OVCAR-5 ovarian, above 100 µM; in the assay on SK-MEL-5 melanoma, 5.43 µM.
For `Cc1nnc(-c2ccc(-c3nc4ccccc4o3)cc2)o1`, the GI50 in the assay with OVCAR-3 ovarian is above 100 µM; in the assay with UACC-62 melanoma, 36.8 µM; with HCT-116 colon it was above 100000 nM; in the assay with HL-60(TB) leukemia, 56.8 µM; in the assay with UO-31 renal it was above 100000 nM; in the assay with MCF7 breast, 26.7 µM. In addition, the GI50 in the assay on SN12C renal was above 100 µM; in the assay with COLO 205 colon it was 76.8 µM; in the assay on OVCAR-5 ovarian it was 44.8 µM; in the assay on SK-MEL-5 melanoma, 21000 nM. For the same compound, the TGI in the assay on OVCAR-3 ovarian, in the assay on UACC-62 melanoma, in the assay on HCT-116 colon, in the assay on HL-60(TB) leukemia, with UO-31 renal and in the assay on MCF7 breast was above 100 µM in each case. Besides, the TGI in the assay with SN12C renal was above 100 µM; in the assay with COLO 205 colon it was above 100 µM; in the assay on OVCAR-5 ovarian it was above 100 µM; in the assay with SK-MEL-5 melanoma, 65.3 µM.
Regarding `O=C(CC(=O)c1ccccc1)c1ccccc1`, the GI50 in the assay on OVCAR-3 ovarian is 16.2 µM; with UACC-62 melanoma, 21.7 µM; in the assay on HCT-116 colon, 16600 nM; in the assay with HL-60(TB) leukemia it was 12.3 µM; with UO-31 renal, 36500 nM; in the assay on MCF7 breast, 10.1 µM. Moreover, the GI50 is 52.8 µM in the assay on SN12C renal, 22.5 µM in the assay with COLO 205 colon, 25.6 µM in the assay on OVCAR-5 ovarian and 11500 nM in the assay on SK-MEL-5 melanoma. Also, the TGI in the assay on OVCAR-3 ovarian is 53.5 µM; in the assay on UACC-62 melanoma, 77.5 µM; in the assay on HCT-116 colon, above 100 µM; in the assay with HL-60(TB) leukemia it was above 100 µM; with UO-31 renal it was above 100 µM; with MCF7 breast, 82.3 µM. In addition, the TGI with SN12C renal was above 100 µM; in the assay with COLO 205 colon, above 100 µM; in the assay with OVCAR-5 ovarian it was above 100 µM; in the assay with SK-MEL-5 melanoma, 32.4 µM.
In the case of `CCOc1cc(C(C)(C)C)ccc1C1=N[C@@](C)(c2ccc(Cl)cc2)[C@@](C)(c2ccc(Cl)cc2)N1C(=O)N1CCN(CCS(C)(=O)=O)CC1`, the GI50 in the assay on OVCAR-3 ovarian is 3.14 µM; in the assay with UACC-62 melanoma, 0.793 µM; in the assay with HCT-116 colon it was 804 nM; with HL-60(TB) leukemia, 2.21 µM; in the assay on UO-31 renal, 361 nM; in the assay on MCF7 breast, 0.606 µM. For the same compound, the GI50 in the assay with SN12C renal was 3.31 µM; in the assay with COLO 205 colon it was 2.03 µM; with OVCAR-5 ovarian, 2.46 µM; in the assay with SK-MEL-5 melanoma it was 1380 nM. The TGI in the assay on OVCAR-3 ovarian is 9.33 µM; in the assay on UACC-62 melanoma it was 3 µM; in the assay on HCT-116 colon it was 4.73 µM; in the assay on HL-60(TB) leukemia it was 5.22 µM; in the assay with UO-31 renal it was 1.63 µM; in the assay on MCF7 breast, 3.75 µM. Further, the TGI in the assay on SN12C renal came to 12.8 µM; in the assay with COLO 205 colon, 4.01 µM; in the assay on OVCAR-5 ovarian, 7.8 µM; in the assay on SK-MEL-5 melanoma, 2.73 µM.
In the case of `O=C(Nc1cc(-c2cccnc2)nc(NCCCN2CCOCC2)n1)c1cc(Br)cc(C(F)(F)F)c1`, the GI50 is 3.7 µM with OVCAR-3 ovarian; 1.94 µM with UACC-62 melanoma; 2090 nM with HCT-116 colon; 2.15 µM in the assay with HL-60(TB) leukemia; 1400 nM in the assay with UO-31 renal; 2.17 µM in the assay with MCF7 breast. The GI50 with SN12C renal is 7.74 µM; in the assay with COLO 205 colon, 1.77 µM; in the assay with OVCAR-5 ovarian, 6.33 µM; in the assay on SK-MEL-5 melanoma, 1640 nM. The TGI in the assay with OVCAR-3 ovarian stood at 12.8 µM; in the assay on UACC-62 melanoma, 4.38 µM; in the assay on HCT-116 colon, 4.81 µM; with HL-60(TB) leukemia it was 5.86 µM; with UO-31 renal it was 3.39 µM; in the assay on MCF7 breast, 9.22 µM. In addition, the TGI was determined as 21.8 µM in the assay on SN12C renal, 3.47 µM in the assay with COLO 205 colon, 23.5 µM in the assay on OVCAR-5 ovarian and 3.02 µM in the assay with SK-MEL-5 melanoma.
On to `C=CCCC(=O)N1C=CC(=O)[C@H](O)[C@@H]1/C=C/c1ccccc1`, for which the GI50 in the assay on OVCAR-3 ovarian was 6.13 µM; in the assay on UACC-62 melanoma, 6.27 µM; in the assay with HCT-116 colon, 6240 nM; in the assay with HL-60(TB) leukemia, 4.35 µM; in the assay on UO-31 renal, 4250 nM; with MCF7 breast, 6.55 µM. Further, the GI50 is 12.7 µM with SN12C renal, 10.9 µM with COLO 205 colon, above 32.5 µM in the assay on OVCAR-5 ovarian and 3930 nM with SK-MEL-5 melanoma. For the same compound, the TGI in the assay with OVCAR-3 ovarian was above 32.5 µM; with UACC-62 melanoma, 15.6 µM; in the assay on HCT-116 colon it was above 32.5 µM; in the assay with HL-60(TB) leukemia, 28 µM; with UO-31 renal it was above 32.5 µM; with MCF7 breast it was above 32.5 µM. Further, the TGI in the assay with SN12C renal is above 32.5 µM; in the assay on COLO 205 colon, above 32.5 µM; in the assay on OVCAR-5 ovarian it was above 32.5 µM; in the assay on SK-MEL-5 melanoma it was 12.3 µM.

(Values after PubChem BioAssay (NCI).)
